“And” between values parts separate entries of the source, which are not always exact repeats. Identical values can stand only once.
Assays:
E.G7-OVA tumor cells = assay: E.G7-OVA tumor growth after immunization with tumor antigen and migration inducer; format: in vivo, C57BL/6 mice
Source text: The tumor cell, E.G7-OVA, is the C57BL/6 EL4 thymoma transfected with the complete gene for chicken ovalbumin (OVA). The transfected cell line expresses OVA protein, which is also processed naturally by E.G7-OVA cells into an eight amino acid peptide, OVA257-264, with the sequence […]. […] Based on the positive results using FITC, the inventors followed a similar protocol in an attempt to induce immunity to the E.G7-OVA tumor by topical administration of the well-characterized, synthetic […] tumor-associated peptide.
C57BL/6 mice were treated as follows: 1) shaving alone; 2) topical administration of acetone and dibutyl phthalate; 3) topical administration of […] (240 μg/ml) in DMSO diluted in PBS, followed in 5 hours by acetone and dibutyl phthalate; and 4) topical administration of […] (240 μg/ml) in acetone and dibutyl phthalate. All mice were subsequently injected subcutaneously with 5×10^5 E.G7-OVA cells (5-times the minimal tumorogenic dose). Tumor-specific immunity was monitored by measuring the size of the developing tumor.
(§1) The mucous membranes lack the tough barrier posed by the stratum corneum of the skin. […] The EL4 parent tumor cell line, lacking chicken ovalbumin, was used as a negative control; no immunity against the EL4 tumor cells was seen. Thus, the inventors' hypothesis regarding penetration of the stratum corneum was confirmed; the […] peptide was not effectively reaching the immature dendritic cells, known as Langerhans cells, underlying the stratum corneum.
To enhance the effectiveness of cutaneous topical administration of peptide, […] was dissolved in DMSO and applied to the skin without further dilution. Dibutyl phthalate in a 50:50 mixture with acetone was applied to the same site 5 hr later. All mice were subsequently injected subcutaneously with 5×10^5 E.G7-OVA cells. The results shown in FIG. 6 indicate that the peptide in concentrated DMSO was apparently able to traverse the stratum corneum, effectively gaining access to the epidermal Langerhans cells. […] Thus, the tumor-specific peptide, […], in concentrated DMSO, penetrated the stratum corneum in sufficient concentration to be incorporated into the MHC class I molecule K^b on epidermal Langerhans cells, and in the presence of the migration inducer, dibutyl phthalate, was effectively presented to CD8+ CTLs in the draining lymph nodes.
To confirm the immunogenicity of the disclosed treatment, groups of 10 C57BL/6 mice were injected with 50 μl of 1.25 mM OVA protein in HBSS, with HBSS alone, or with nothing. This was followed an hour later by topical application of DBP in acetone or with nothing. One month later, the mice were inoculated subcutaneously with 5×10^5 EL4 tumor cells or with 5×10^5 E.G7-OVA tumor cells and subsequent tumor growth was measured.

[1] = tested on: dendritic cells in draining lymph node; assay: Antigen-bearing dendritic cells in lymph nodes after injection of soluble protein or peptide with or without topical migration inducer; format: in vivo, mice
Experimental: The injections were followed 2 hours later by topical application of dibutyl phthalate and acetone to the abdominal skin. The antigen-bearing dendritic cells that had migrated to the draining lymph node two days later were analyzed as described above and are shown in the upper right quadrant of each dot plot.
This was followed 2 hrs later by: A) no further treatment, or B) topical application of dibutyl phthalate and acetone to the abdominal skin. The antigen-bearing dendritic cells that had migrated to the draining lymph node two days later are shown in the upper right quadrant of each dot plot.
As stated previously, whether mature antigen-bearing dendritic cells will be encountered by and activate naive T cells in the lymph node is likely to depend not only on the number of antigen-bearing dendritic cells that enter the node, but also on the density of MHC:peptide complexes expressed on their membranes.

[2] = tested on: dendritic cells in draining inguinal lymph nodes; assay: Antigen-bearing dendritic cells in lymph nodes after ultrasound application of soluble peptide followed by migration inducer; format: in vivo, C57BL/6 mice
Experimental: FIG. 9 illustrates the effect of delivering a peptide antigen ([…]) into the skin via ultrasound, followed by topical application of dibutyl phthalate and acetone to maximize the induction of dendritic cell migration and maturation. […] (240 μg) in DMSO, or DMSO alone, was applied to the shaved abdominal skin of C57BL/6 mice and covered with a hydrogel, into which was inserted a 13 mm diameter ultrasound transducer. Ultrasound was applied at 20 kHz and 1.6 W/cm^2, in 1 second pulses every 2 seconds for 6 minutes, for a total ultrasound dose of 288 J/cm^2. Two hours later, a 50:50 v/v solution of acetone and dibutyl phthalate was applied topically to the same area. Two days later, the skin draining inguinal lymph nodes were removed and the cells analyzed by immunofluorescent flow cytometry.
The antigen-bearing dendritic cells that had migrated to the draining lymph node are shown in the upper right quadrant of each dot plot. The dendritic cells in the lymph node were identified by their characteristic light scatter properties and exceptionally high surface expression of MHC class II (FL1), while the antigenic epitope was detected using the K^b:[…]-specific mAb 25-D1.16 (FL2), as described above.
As stated previously, whether mature antigen-bearing dendritic cells will be encountered by and activate naive T cells in the lymph node is likely to depend not only on the number of antigen-bearing dendritic cells that enter the node, but also on the density of MHC:peptide complexes expressed on their membranes. To estimate the density of peptide:MHC complexes on the immigrant dendritic cells generated by this procedure, we compared the fluorescence intensity of various cell populations detected by the peptide:MHC-specific mAb, 25-D1.16, using identical staining conditions and flow cytometer settings. The results are shown in Table IV, providing the number of specific peptide:MHC complexes expressed on the plasma membrane of dendritic cells after various treatments in vitro or in vivo.

E.G7-OVA cells = details: endogenous SIINFEKL, reported by Rotzschke et al. and Malarkannan et al.; cited from earlier work
EL4 tumor cells = assay: EL4 parent tumor growth (negative control tumor) after intravaginal immunization; format: in vivo, C57BL/6 mice; details: SIINFEKL in acetone and dibutyl phthalate intravaginally; EL4 lacks ovalbumin
Source text: as §1

[3] = 144 μg in 150 μl HBSS injected, no further treatment, two days later
[4] = 144 μg injected, topical dibutyl phthalate and acetone 2 hrs later, two days later
[5] = 20 μl of 0.5 mM in HBSS injected, dibutyl phthalate and acetone 2 hours later, two days later
[6] = immigrant Langerhans cells from inguinal lymph nodes 48 hrs after 4.8 μg SIINFEKL injected
[7] = 240 μg in DMSO, ultrasound 20 kHz, acetone/dibutyl phthalate 2 hours later, nodes two days later
[8] = immigrant Langerhans cells from inguinal lymph nodes 48 hrs after 240 μg SIINFEKL by ultrasound

Sequence: SIINFEKL [eight amino acid peptide OVA257-264 of chicken ovalbumin, tumor-associated peptide antigen presented by K^b]
- protection against E.G7-OVA tumor (E.G7-OVA tumor cells; SIINFEKL in acetone and dibutyl phthalate applied to the vaginal epithelium (FIG. 5)): protection against the tumor was induced
- established E.G7-OVA tumors (E.G7-OVA tumor cells; SIINFEKL in undiluted DMSO on skin, dibutyl phthalate 50:50 acetone 5 hr later (FIG. 6)): diminished by 16 days post-inoculation
- E.G7-OVA tumor growth (E.G7-OVA tumor cells; SIINFEKL in undiluted DMSO on skin, dibutyl phthalate 50:50 acetone 5 hr later, 5×10^5 cells s.c. (FIG. 6)): suppressed after 6 to 9 days
- inhibition of E.G7-OVA tumor cell growth (E.G7-OVA tumor cells; cutaneous topical SIINFEKL 240 μg/ml in DMSO diluted in PBS then acetone and dibutyl phthalate, or in acetone and dibutyl phthalate, 5×10^5 cells s.c. (FIG. 4)): none of the treatment protocols were effective
- Dendritic Cells per Lymph Node [1, 3]: 3,024
- K^b:SIINFEKL^+ DC per LymphNode [1, 3]: 504
- Total Cells per Lymph Node [1, 3]: 6.3 × 10^6
- Dendritic Cells per Lymph Node [1, 4]: 55,912
- K^b:SIINFEKL^+ DC per LymphNode [1, 4]: 22,239
- Total Cells per Lymph Node ([1]; 20 μl of 0.5 mM in HBSS injected at two sites in abdominal skin, dibutyl phthalate and acetone topically 2 hours later, two days later): 1.1 × 10^7
- Dendritic Cells per Lymph Node [1, 5]: 162,628
- K^b:SIINFEKL^+ DC per LymphNode [1, 5]: 89,598
- Enhancement ([1]; K^b:SIINFEKL+ DC versus HBSS injection): 44×
- Enhancement ([1]; SIINFEKL alone (reference)): 1×
- increase in the total number of dendritic cells per lymph node ([1]; SIINFEKL injection followed by topical migration/maturation inducer versus without): 18.5 fold
- increase in antigen-bearing dendritic cells per lymph node ([1]; SIINFEKL injection with versus without migration/maturation inducer): 44 fold
- Median No. of Complexes/Cell [1, 6]: 860 complexes/cell
- Median Specific Fl. Intensity [1, 6]: 43
- increase in the number of antigen-bearing dendritic cells in the draining lymph nodes ([1]; injection followed by topical induction of migration, two days later): 44 fold
- Dendritic Cells per Lymph Node [2, 7]: 51,968
- K^b:SIINFEKL^+ DC per LymphNode [2, 7]: 13,216
- Total Cells per Lymph Node [2, 7]: 5.6 × 10^6
- Enhancement ([2]; K^b:SIINFEKL+ DC versus DMSO alone): 5×
- Median No. of Complexes/Cell [2, 8]: 633 complexes/cell
- Median Specific Fl. Intensity [2, 8]: 32
- cells reactive with mAb 25-D1.16 relative to absence of SIINFEKL ([2]; ultrasound-mediated topical exposure to SIINFEKL): five times
- Median No. of Complexes/Cell (E.G7-OVA cells): 88 complexes/cell and 90 complexes/cell and 89^d complexes/cell
- immunity against EL4 tumor cells (EL4 tumor cells): no immunity

Reference: patent US7229621B2, “Method to enhance the immunogenicity of an antigen” (Torrey Pines Institute for Molecular Studies, priority 1998, dated 2007)
